The values that follow come from patent publication US9018374B2, “Crystal of amide compound” (Takeda Pharmaceutical Company Limited, priority 2010, dated 2015).

One data set in a line: Slurry interconversion. It is filed as physicochemical. Conditions: for crystal form 1 day later: 20 mg in 0.2 mL isopropyl alcohol, slurry at ambient temperature, powder X-ray diffraction, hydrochloride. The procedure:
Type A crystal, type B crystal, and a mixture (1:1) of type A crystal and type B crystal (each 20 mg) were measured in vials, and isopropyl alcohol (0.2 mL) was added to give suspension containing excess solids remaining therein. The vial was sealed, and shaken on a slurry wheel at ambient temperature for 1 day at steady rotation. Thereafter, the solids were collected by filtration.

A short description of data set [1]: Moisture adsorption analysis. Conditions: 25° C., hydrochloride. It is filed as physicochemical. Here is the method: Moisture adsorption of type A crystal and type B crystal was automatically analyzed by VTI Symmetrical Gravimetric Analyzer in step-isothermal mode (SGA-100 for type A crystal, SGA-CX for type B crystal). Samples were exposed various relative humidities (RH) at 25° C. The weight of the samples at each relative humidity was recorded after equilibrium (weight change of less than 0.02% within 10 min).

The nature of the next data set: Dissolution test. The following applies: room temperature (25° C.). Here is the method: To type A crystal and type B crystal (each 50 mg) were added 2-butanone, ethyl acetate, toluene, n-heptane and tert-butylmethylether (each 5 mL), and the dissolution property was measured using a powder suspension (25° C., 2 hr). The suspension was centrifuged, the supernatant was filtered with a filter (pore size 0.22 μm), and the solvent was evaporated from the filtrate under a nitrogen atmosphere. The residue obtained by evaporation was dissolved in a mixed solution of 50 mM aqueous ammonium acetate solution/acetonitrile (1:1), and measured by HPLC.

“Also recorded” adds a separate entry of the source.

Turning to `COCCCCn1c(C(=O)N(CC(C)C)[C@@H]2CNC[C@H](C(=O)N3CCOCC3)C2)nc2ccccc21.Cl` [type A crystal, 1-(4-methoxybutyl)-N-(2-methylpropyl)-N-[(3S,5R)-5-(morpholin-4-ylcarbonyl)piperidin-3-yl]-1H-benzimidazole-2-carboxamide hydrochloride, reference compound], in “Slurry interconversion”, the “crystal form 1 day later” value is on record as “convert to type B crystal”. Further, the entries for the “level (%) of weight change” value in data set [1] (relative humidity 30% RH), in data set [1] (relative humidity 50% RH) and in data set [1] (relative humidity 70% RH) were −0.1%, 0.0% and 7.6%, respectively.
On to `COCCCCn1c(C(=O)N(CC(C)C)[C@@H]2CNC[C@H](C(=O)N3CCOCC3)C2)nc2ccccc21.Cl` [type B crystal, 1-(4-methoxybutyl)-N-(2-methylpropyl)-N-[(3S,5R)-5-(morpholin-4-ylcarbonyl)piperidin-3-yl]-1H-benzimidazole-2-carboxamide hydrochloride], for which the “thermodynamic stability as compared to type A crystal (from dissolution test)” value in the data set “Dissolution test” is reported as “thermodynamically stable”. Further, in the data set “Slurry interconversion”, the “crystal form 1 day later” value is on record as “no change; also recorded: type B”. The “thermodynamic stability as compared to type A crystal (from slurry experiment)” value in the data set “Slurry interconversion” (ambient temperature) is reported as “thermodynamically stable”. For the same molecule, the “level (%) of weight change” value amounted to 0.0% in data set [1] (relative humidity 30% RH), 0.5% in data set [1] (relative humidity 50% RH) and 0.9% in data set [1] (relative humidity 70% RH).
